Source: ChEMBL document CHEMBL5291721, “A preclinical secondary pharmacology resource illuminates target-adverse drug reaction associations of marketed drugs” (Nat Commun, 2023)

Experiments:
[1] = biological target: Neurotensin receptor type 1 (Homo sapiens, UniProt P30989)
[2] = biological target: Estrogen receptor beta (Homo sapiens, UniProt Q92731)
[3] = biological target: T1, Endothelin receptor type B (Homo sapiens, UniProt P24530)
T1 sequence (P24530 whole entry): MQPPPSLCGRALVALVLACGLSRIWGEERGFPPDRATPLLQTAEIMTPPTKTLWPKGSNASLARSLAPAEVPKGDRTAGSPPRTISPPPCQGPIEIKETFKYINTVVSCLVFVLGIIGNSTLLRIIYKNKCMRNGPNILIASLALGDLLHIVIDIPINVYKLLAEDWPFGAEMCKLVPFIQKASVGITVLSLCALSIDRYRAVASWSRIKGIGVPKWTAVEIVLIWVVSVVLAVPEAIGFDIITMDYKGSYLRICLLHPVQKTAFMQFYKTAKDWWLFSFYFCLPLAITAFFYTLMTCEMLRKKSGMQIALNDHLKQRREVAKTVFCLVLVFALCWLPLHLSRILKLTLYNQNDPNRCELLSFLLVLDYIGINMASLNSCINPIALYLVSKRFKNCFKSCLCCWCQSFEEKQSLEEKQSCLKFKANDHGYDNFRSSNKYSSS

[4] = biological target: T2, Peroxisome proliferator-activated receptor gamma (Homo sapiens, UniProt P37231); format: functional
T2 sequence (P37231 whole entry): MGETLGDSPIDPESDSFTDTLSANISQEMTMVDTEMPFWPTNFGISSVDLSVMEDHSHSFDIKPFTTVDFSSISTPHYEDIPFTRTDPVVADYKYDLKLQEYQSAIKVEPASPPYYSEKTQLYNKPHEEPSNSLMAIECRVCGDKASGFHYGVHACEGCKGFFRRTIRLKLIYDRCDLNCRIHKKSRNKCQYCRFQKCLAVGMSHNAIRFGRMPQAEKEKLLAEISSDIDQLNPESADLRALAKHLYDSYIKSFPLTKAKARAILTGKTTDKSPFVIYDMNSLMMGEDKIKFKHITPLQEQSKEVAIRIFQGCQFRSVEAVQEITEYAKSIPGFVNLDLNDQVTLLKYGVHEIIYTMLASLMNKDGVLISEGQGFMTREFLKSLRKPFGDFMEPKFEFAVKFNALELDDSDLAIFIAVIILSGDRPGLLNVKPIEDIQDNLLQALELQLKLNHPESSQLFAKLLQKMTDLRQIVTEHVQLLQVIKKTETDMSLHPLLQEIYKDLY

[5] = biological target: Substance-P receptor (Homo sapiens, UniProt P25103)
[6] = biological target: T3, D(4) dopamine receptor (Homo sapiens, UniProt P21917)
T3 sequence (P21917 whole entry): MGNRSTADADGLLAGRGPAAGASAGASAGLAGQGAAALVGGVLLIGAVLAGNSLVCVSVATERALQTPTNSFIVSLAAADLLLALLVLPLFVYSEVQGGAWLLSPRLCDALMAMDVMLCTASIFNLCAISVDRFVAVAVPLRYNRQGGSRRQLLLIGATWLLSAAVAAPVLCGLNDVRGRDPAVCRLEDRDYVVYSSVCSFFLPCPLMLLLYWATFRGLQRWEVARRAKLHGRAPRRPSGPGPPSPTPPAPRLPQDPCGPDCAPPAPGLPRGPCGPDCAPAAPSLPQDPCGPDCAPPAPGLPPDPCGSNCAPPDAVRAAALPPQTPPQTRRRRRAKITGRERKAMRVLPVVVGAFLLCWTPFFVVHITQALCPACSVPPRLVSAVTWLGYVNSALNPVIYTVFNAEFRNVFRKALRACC

[7] = biological target: T4, Amine oxidase [flavin-containing] A (Homo sapiens, UniProt P21397); format: functional
T4 sequence (P21397 whole entry): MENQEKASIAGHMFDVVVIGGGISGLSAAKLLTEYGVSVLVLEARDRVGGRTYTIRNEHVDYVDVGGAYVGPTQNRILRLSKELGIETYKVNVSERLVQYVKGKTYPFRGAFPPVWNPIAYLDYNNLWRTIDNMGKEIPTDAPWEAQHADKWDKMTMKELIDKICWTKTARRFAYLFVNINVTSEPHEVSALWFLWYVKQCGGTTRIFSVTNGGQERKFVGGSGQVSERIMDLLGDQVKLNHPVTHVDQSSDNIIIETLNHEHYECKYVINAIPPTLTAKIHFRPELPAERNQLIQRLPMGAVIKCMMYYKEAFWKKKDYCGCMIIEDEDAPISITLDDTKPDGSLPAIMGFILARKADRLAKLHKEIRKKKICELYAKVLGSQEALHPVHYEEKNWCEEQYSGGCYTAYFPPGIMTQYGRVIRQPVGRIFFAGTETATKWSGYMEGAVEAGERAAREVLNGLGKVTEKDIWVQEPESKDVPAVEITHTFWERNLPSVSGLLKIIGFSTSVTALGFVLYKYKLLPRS

[8] = biological target: T5, Muscarinic acetylcholine receptor M2 (Homo sapiens, UniProt P08172)
T5 sequence (P08172 whole entry): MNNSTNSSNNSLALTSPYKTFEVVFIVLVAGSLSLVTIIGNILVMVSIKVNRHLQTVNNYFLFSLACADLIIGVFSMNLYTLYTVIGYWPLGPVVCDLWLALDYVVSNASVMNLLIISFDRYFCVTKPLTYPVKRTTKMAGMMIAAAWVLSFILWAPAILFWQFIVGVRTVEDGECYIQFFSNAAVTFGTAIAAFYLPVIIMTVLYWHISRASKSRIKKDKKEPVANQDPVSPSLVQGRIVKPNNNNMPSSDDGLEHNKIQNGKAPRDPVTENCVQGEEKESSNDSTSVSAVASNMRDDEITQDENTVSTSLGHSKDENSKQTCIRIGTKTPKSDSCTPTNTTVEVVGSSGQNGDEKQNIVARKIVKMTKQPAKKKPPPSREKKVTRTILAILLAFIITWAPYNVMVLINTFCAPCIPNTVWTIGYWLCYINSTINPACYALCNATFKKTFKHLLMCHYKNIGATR

[9] = biological target: Prostaglandin G/H synthase 1 (Homo sapiens, UniProt P23219); format: functional
[10] = biological target: Prothrombin (Homo sapiens, UniProt P00734); format: functional
[11] = biological target: 3',5'-cyclic-AMP phosphodiesterase 4A (Homo sapiens, UniProt P27815); format: functional
[12] = biological target: cGMP-inhibited 3',5'-cyclic phosphodiesterase 3A (Homo sapiens, UniProt Q14432); format: functional
[13] = biological target: Mu-type opioid receptor (Homo sapiens, UniProt P35372)
[14] = biological target: Gamma-aminobutyric acid receptor subunit alpha-1/alpha-2/beta-2/gamma-2 (Homo sapiens, UniProt P14867+P18507+P47869+P47870); format: protein-complex assay
Note: assay procedure not described here.

Sequence of Mu-type opioid receptor (P35372 whole entry): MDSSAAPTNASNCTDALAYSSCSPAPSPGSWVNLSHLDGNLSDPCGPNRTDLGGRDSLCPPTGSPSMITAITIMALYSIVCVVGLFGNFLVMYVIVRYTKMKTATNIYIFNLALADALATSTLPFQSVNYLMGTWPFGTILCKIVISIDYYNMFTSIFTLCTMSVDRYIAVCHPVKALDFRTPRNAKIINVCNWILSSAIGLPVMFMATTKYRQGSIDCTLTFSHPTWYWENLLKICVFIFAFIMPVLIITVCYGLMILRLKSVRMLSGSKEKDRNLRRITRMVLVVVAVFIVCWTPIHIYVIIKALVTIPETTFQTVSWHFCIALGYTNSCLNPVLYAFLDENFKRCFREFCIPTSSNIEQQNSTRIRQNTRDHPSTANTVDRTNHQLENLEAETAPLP
Sequence of Neurotensin receptor type 1 (P30989 whole entry): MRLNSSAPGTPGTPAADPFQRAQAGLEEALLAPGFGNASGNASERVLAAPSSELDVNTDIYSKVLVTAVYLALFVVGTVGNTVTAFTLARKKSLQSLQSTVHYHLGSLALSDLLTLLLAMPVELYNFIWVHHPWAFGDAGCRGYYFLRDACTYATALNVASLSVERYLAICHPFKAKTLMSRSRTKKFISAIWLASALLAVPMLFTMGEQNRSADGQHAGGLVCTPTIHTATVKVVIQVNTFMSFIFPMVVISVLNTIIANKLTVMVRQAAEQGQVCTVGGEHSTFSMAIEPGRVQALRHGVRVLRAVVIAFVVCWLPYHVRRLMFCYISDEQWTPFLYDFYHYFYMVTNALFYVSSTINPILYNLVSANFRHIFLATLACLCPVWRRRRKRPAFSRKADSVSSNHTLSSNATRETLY
Sequence of Prostaglandin G/H synthase 1 (P23219 whole entry): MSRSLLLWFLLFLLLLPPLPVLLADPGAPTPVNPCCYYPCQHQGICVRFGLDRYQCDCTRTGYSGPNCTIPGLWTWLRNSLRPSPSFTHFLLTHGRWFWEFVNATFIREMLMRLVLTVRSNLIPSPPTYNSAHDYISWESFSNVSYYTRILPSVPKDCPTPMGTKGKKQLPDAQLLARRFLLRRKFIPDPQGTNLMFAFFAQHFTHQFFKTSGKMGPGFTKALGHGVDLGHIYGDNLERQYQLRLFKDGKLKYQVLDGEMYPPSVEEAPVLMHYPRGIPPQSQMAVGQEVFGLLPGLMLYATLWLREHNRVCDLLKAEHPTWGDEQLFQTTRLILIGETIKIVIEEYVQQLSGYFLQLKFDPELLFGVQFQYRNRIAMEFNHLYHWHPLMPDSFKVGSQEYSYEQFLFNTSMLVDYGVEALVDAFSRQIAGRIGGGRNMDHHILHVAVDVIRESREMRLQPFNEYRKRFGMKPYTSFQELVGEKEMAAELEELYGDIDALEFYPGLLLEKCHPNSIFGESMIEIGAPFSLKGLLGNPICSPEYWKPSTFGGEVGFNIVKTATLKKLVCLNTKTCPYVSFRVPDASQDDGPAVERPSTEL
Sequence of 3',5'-cyclic-AMP phosphodiesterase 4A (P27815 whole entry): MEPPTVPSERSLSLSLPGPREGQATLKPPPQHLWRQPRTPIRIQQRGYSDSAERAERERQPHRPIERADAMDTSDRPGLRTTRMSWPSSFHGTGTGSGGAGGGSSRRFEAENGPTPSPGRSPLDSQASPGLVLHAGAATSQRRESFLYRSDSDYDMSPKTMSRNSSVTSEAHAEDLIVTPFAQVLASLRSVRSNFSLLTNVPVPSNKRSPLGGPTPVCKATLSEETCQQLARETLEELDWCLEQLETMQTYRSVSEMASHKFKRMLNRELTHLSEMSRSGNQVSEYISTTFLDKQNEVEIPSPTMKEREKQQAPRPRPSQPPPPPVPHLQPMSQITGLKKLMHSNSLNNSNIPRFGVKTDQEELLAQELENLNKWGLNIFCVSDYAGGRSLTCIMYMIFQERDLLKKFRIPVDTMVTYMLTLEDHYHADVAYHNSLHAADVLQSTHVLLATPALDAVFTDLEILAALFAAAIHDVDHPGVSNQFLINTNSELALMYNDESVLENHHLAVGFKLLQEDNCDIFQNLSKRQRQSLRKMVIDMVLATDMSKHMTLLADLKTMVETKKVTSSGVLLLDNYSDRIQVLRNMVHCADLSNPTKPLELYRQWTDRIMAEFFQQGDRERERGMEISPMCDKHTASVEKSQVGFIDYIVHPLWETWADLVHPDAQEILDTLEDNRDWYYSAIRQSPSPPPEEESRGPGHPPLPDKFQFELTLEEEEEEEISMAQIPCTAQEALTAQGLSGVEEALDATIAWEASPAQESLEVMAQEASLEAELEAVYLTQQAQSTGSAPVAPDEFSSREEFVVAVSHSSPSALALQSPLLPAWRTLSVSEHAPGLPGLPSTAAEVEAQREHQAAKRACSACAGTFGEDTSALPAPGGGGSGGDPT
Sequence of cGMP-inhibited 3',5'-cyclic phosphodiesterase 3A (Q14432 whole entry): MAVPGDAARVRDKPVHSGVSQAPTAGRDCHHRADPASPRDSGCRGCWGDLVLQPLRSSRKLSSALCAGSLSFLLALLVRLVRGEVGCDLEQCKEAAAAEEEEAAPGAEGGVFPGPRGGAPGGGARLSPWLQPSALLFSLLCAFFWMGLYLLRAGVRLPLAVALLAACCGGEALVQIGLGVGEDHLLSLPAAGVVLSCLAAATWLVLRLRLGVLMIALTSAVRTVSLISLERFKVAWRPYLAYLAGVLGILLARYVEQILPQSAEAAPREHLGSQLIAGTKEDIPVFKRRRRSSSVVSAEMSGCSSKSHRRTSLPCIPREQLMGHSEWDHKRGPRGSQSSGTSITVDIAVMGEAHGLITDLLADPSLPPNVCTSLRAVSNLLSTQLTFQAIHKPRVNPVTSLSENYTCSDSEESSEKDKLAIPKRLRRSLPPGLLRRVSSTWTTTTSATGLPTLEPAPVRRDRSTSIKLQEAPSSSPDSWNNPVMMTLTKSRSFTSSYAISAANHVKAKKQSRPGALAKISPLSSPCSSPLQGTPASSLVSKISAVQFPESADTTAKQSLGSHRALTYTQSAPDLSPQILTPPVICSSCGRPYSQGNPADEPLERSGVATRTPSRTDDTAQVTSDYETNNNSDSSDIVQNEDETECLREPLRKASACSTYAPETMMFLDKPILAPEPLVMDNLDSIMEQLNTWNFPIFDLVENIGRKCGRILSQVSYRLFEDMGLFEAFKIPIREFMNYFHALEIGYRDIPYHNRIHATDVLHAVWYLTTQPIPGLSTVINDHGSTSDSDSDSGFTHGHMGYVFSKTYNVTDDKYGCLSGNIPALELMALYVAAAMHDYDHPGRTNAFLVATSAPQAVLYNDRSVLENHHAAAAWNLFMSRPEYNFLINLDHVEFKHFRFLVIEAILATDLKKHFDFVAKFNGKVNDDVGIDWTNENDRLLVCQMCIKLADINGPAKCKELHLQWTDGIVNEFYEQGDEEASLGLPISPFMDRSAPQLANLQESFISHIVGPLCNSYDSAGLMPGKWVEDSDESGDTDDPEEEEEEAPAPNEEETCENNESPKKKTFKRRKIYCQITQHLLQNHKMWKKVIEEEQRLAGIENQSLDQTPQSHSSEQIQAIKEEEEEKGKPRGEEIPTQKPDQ
Sequence of Estrogen receptor beta (Q92731 whole entry): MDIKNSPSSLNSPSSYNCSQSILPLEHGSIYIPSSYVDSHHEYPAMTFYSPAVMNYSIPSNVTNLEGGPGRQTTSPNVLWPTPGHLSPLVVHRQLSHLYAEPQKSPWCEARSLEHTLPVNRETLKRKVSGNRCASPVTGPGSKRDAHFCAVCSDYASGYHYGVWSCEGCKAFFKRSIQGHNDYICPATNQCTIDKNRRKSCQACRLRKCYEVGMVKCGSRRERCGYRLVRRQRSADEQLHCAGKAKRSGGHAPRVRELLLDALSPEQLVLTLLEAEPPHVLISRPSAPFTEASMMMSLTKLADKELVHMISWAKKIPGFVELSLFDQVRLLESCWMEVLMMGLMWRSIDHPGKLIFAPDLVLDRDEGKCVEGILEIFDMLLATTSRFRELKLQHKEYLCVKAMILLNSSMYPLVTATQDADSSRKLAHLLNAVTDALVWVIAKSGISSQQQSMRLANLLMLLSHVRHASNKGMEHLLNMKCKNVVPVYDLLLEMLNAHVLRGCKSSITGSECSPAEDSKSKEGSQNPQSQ
Sequence of Substance-P receptor (P25103 whole entry): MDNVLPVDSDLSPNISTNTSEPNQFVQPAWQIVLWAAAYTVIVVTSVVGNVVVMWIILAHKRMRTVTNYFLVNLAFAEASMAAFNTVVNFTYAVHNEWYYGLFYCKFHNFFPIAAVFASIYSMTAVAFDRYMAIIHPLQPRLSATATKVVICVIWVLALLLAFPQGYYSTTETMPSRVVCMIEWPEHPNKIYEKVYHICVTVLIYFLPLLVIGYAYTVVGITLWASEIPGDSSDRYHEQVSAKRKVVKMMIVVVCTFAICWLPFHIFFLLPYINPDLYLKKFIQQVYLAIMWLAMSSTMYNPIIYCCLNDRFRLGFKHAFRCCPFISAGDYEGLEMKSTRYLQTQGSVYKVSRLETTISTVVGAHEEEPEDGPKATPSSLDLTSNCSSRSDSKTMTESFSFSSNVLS

| Structure (SMILES) | AC50 [1] | AC50 [2] | AC50 [3] | AC50 [4] | AC50 [7] | AC50 [8] | AC50 [9] | AC50 [10] | AC50 [11] | AC50 [12] | AC50 [13] | also measured |
| --- | --- | --- | --- | --- | --- | --- | --- | --- | --- | --- | --- | --- |
| CC(=O)OCC(=O)[C@@]1(O)[C@H](C)C[C@H]2[C@@H]3CCC4=CC(=O)C=C[C@]4(C)[C@@]3(F)[C@@H](O)C[C@@]21C [DEXAMETHASONE ACETATE] | > 30 µM | > 30 µM | > 30 µM |  |  |  |  |  |  |  |  |  |
| CCN1CCCC1CNC(=O)c1cc(S(=O)(=O)CC)c(N)cc1OC (stereo not given) [AMISULPRIDE] |  |  |  | > 30 µM |  |  |  |  |  |  |  |  |
| Cn1c(=O)cc(N2CCC[C@@H](N)C2)n(Cc2ccccc2C#N)c1=O [ALOGLIPTIN] | > 30 µM | > 30 µM | > 30 µM |  |  |  |  |  |  |  |  | AC50 [5]: > 10 µM; AC50 [6]: > 10 µM |
| Oc1ccc2c(c1)[C@@]13CCCC[C@@]1(O)[C@@H](C2)N(CC1CCC1)CC3 [BUTORPHANOL] |  |  |  | > 30 µM |  |  |  |  |  |  |  |  |
| Nc1c2ccccc2nc2ccccc12 [AMINACRINE] |  |  |  |  | > 30 µM | 4.27 µM | > 30 µM | > 30 µM | > 30 µM | > 30 µM | 13.8 µM |  |
| O=C(O)CCCCC1CCSS1 (stereo not drawn) [LIPOIC ACID, ALPHA] |  |  |  |  | > 30 µM | > 30 µM | > 30 µM | > 30 µM | > 30 µM | > 30 µM | > 30 µM | AC50 [14]: > 30 µM |
